Earlier results in patent publication EP1543827A1, “EMULSION OF PERFLUORORGANIC COMPOUNDS EXHIBITING GAS-TRANSPORT PROPERTIES, A SURFACE-ACTIVE AGENT FOR SAID EMULSION AND METHOD FOR THE PRODUCTION THEREOF” (Obshestvo C Ogranichennoi Otvetstvennostiu Accent, priority 2002, dated 2004).

Details: in vivo

period of PFOC semi-clearance out of the organism [days]	Compound
65	FC(F)(F)C1(F)C(F)(F)C(F)(F)C(F)(N2C(F)(F)C(F)(F)C(F)(F)C(F)(F)C2(F)F)C(F)(F)C1(F)F (centres unmarked) [PMCP, perfluoro-n-methylcyclohexylpiperidine]
7	perfluordecalin [PFD]
